Holding throughout (assay type): biochemical
The target of test [1] is T1, rhVAP-1 (Homo sapiens, UniProt Q16853).
T1 construct: purchased R&D Systems
T1 sequence (Q16853 1-763): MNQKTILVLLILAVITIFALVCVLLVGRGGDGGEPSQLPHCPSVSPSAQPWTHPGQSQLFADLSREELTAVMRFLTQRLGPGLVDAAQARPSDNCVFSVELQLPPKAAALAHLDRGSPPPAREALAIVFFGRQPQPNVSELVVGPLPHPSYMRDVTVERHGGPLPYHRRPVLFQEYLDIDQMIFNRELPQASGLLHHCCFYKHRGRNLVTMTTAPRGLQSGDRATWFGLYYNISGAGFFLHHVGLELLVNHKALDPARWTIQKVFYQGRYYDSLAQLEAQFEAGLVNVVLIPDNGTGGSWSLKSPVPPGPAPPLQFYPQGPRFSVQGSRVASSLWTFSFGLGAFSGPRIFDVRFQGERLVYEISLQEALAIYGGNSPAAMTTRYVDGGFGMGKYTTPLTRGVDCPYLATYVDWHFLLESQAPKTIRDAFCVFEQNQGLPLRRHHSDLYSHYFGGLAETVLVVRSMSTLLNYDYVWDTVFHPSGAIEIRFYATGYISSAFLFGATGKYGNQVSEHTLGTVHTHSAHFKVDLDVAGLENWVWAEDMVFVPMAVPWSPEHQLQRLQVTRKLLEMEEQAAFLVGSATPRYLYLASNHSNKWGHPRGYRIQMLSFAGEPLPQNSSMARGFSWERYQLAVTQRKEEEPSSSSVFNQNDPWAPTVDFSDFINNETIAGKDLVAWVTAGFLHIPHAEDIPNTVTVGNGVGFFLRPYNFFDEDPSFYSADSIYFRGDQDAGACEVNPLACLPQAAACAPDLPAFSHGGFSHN
Nature of the test: VAP-1 Assay (fluorometric, Amplex Red/HRP, benzylamine substrate). Particulars: rhVAP-1, benzylamine 50 μM, 30 minutes at 37° C., 10 mM NaHCO3 pH 7.4. As to the method:
The capability of compounds described herein to inhibit the enzymatic activity of vascular adhesion protein-1 (VAP-1) was determined by fluorometric assay. The assay procedure provided by R&D Systems was modified slightly for use as an inhibitor screening assay. The assay measured the H2O2 generated from the oxidative deamination of benzylamine by rhVAP-1 by converting Amplex® Red to the fluorescent product, resorufin, via horseradish peroxidase (HRP) and H2O2. Reaction buffer was 10 mM NaHCO3, pH 7.4. A standard curve was prepared by serially diluting H2O2 in reaction buffer. A 10 μM solution of resorufin was prepared in reaction buffer and was dispensed to 2 wells. These wells served as positive control for maximum fluorescence. Reaction buffer was added to the individual wells so that the final volume in each well was 100 μL. Amplex Red was diluted to 1 mM in reaction buffer. A 10U stock of HRP was prepared in reaction buffer. A reaction cocktail was prepared by mixing equal parts 1 mM Amplex Red with 10U HRP with 3 parts reaction buffers. The reaction cocktail was added to the appropriate wells, so that that final concentration in the well was 0.05 mM Amplex Red and 0.5U HRP. A 200 μM solution of benzylamine was prepared in reaction buffer. Benzylamine was added to the appropriate wells so that the final concentration was 50 μM. Inhibitors were diluted in DMSO to 20× and distributed to the appropriate wells. UP-1207 served a positive control. rhVAP-1 was purchased from R&D Systems. The concentration used for each lot was determined so that the activity was equal to the first lot. Two wells were left blank as controls. The plate was incubated for 30 minutes at 37° C., protected from light under foil. The plate was read at 530/35 emission and 590/35 excitation. Data processing was performed using Excel and Prism software.
The capability of compounds described herein to inhibit the enzymatic activity of vascular adhesion protein-1 (VAP-1) was determined by fluorometric assay. The assay procedure provided by R&D Systems was modified slightly for use as an inhibitor screening assay. The assay measured the H2O2 generated from the oxidative deamination of benzylamine by rhVAP-1 by converting Amplex® Red to the fluorescent product, resorufin, via horseradish peroxidase (HRP) and H2O2. Amplex Red, HRP, Benzylamine, inhibitors (with DMSO as vehicle, 0.5% v/v) and rhVAP-1 were added to the wells. Assay was conducted in 10 mM NaHCO3, pH 7.4. A standard curve was prepared by serially diluting H2O2 in reaction buffer. The plate was incubated for 30 minutes at 37° C., protected from light under foil. The plate was read at 530/35 emission and 590/35 excitation. Data processing was performed using Prism software.

For test [2], the target named is T2, rhMAO-A (Homo sapiens, UniProt P21397).
T2 construct: purchased Sigma
T2 sequence (P21397 1-527): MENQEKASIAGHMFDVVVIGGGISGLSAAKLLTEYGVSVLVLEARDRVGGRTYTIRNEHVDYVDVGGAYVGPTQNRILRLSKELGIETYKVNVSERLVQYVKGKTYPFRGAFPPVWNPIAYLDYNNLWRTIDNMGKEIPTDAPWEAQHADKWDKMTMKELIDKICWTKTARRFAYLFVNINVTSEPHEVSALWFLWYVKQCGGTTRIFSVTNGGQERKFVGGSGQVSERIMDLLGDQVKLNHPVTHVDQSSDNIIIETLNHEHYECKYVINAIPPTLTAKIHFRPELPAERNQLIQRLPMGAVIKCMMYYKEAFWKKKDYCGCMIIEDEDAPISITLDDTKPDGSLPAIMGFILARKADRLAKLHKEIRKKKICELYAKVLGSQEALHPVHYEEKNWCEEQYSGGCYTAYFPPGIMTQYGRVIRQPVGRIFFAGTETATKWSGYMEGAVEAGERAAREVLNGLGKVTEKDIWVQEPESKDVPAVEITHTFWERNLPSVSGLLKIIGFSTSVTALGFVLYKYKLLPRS
Nature of the test: MAO Assay (modified Promega MAO-Glo), MAO-A inhibition. Particulars: substrate 10 μM, 1 hour at room temperature. Here is the method: (§1) The capability of compounds described herein to inhibit MAO was determined using a modified Promega MAO-Glo™ assay kit. The substrate ((4S)-4,5-dihydro-2-(6-hydroxybenzothiazolyl)-4-thiazolecarboxylic acid) was converted by MAO to produce methyl ester luciferin. The luciferin was then converted by luciferase to produce oxyluciferin and light. The light was measured using a luminescence setting on the plate reader. A standard curve was prepared by serially diluting luciferin in reaction buffer. The standard kit reaction buffer was used—100 mM HEPES (pH 7.5), 5% glycerol. The substrate was dispensed into the wells so that the final concentration for MAO-A inhibition assay would be 10 μM and MAO-B inhibition assay would be 1 μM. Inhibitors were diluted in DMSO to 4× and distributed to the appropriate wells. Clorgyline and Deprenyl served as positive controls. rhMAO-A and rhMAO-B were purchased from Sigma. MAO-A or MAO-B was added to the appropriate wells. The plate was incubated for 1 hour, at room temperature with gentle shaking (90 rpm). The detection agent was added at equal volume (48 μL detection agent to 48 μL reaction). The plate was incubated for 20 minutes, at room temperature with gentle shaking (90 rpm). The plate luminescence was read. Data processing was performed using Prism software.
(§2) The capability of compounds described herein to inhibit MAO was determined using a modified Promega MAO-Glo™ assay. Test compounds, substrate and enzyme were incubated per manufacturer instructions for lhour, at room temperature with gentle shaking (90 rpm) before addition of detection agent. The detection agent was added at equal volume (48 μL detection agent to 48 μL reaction). The plate was incubated for 20 minutes, at room temperature with gentle shaking (90 rpm). The plate luminescence was read. Data processing was performed using Prism software.

For test [3], the target named is T3, rhMAO-B (Homo sapiens, UniProt P27338).
T3 construct: purchased Sigma
T3 sequence (P27338 1-520): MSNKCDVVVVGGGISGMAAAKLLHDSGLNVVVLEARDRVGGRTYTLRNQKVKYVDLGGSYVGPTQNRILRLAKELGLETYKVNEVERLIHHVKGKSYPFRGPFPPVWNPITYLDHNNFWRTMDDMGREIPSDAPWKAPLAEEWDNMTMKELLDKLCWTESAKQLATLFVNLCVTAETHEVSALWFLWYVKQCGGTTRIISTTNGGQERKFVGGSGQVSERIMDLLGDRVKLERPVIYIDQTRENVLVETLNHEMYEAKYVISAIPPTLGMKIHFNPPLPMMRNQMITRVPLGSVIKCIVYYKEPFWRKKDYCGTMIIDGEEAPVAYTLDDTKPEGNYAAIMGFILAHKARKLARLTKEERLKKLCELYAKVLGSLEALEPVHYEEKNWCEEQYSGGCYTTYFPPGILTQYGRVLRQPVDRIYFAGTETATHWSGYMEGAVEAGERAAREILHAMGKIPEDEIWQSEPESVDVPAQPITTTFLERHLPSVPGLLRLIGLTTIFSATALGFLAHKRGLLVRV
The test can be described thus: MAO Assay (modified Promega MAO-Glo), MAO-B inhibition. Particulars: substrate 1 μM, 1 hour at room temperature. Here is the method: as §1, §2

With `CCCCc1cn2cc(OC/C(=C/F)CN)ccc2n1` [Example 1, (E)-2-(((2-butylimidazo[1,2-a]pyridin-6-yl)oxy)methyl)-3-fluoroprop-2-en-1-amine bis(4-methylbenzenesulfonate)], the IC50 (usually the midpoint of a concentration-inhibition curve) in test [1] is below 100 nM; in test [2] (class symbols), 10 to 30 µM; in test [3], 1000 to 10000 nM.
On to `CCCCc1cn2ccc(OC/C(=C/F)CN)cc2n1` [Example 2, (E)-2-(((2-butylimidazo[1,2-a]pyridin-7-yl)oxy)methyl)-3-fluoroprop-2-en-1-amine 4-methylbenzenesulfonate], for which the IC50 in test [1] was below 100 nM; in test [2] (class symbols), 10 to 30 µM; in test [3], 10000 to 30000 nM.
`CCCCc1nc2cc(OC/C(=C/F)CN)ccn2n1` [Example 3, (E)-2-(((2-butyl-[1,2,4]triazolo[1,5-a]pyridin-7-yl)oxy)methyl)-3-fluoroprop-2-en-1-amine 4-methylbenzenesulfonate]: the IC50 in test [1] was below 100 nM; in test [2] (class symbols), 10 to 30 µM; in test [3], 1000 to 10000 nM.
On to `CCCCc1nc2ccc(OC/C(=C/F)CN)cn2n1` [Example 4, (E)-2-(((2-butyl-[1,2,4]triazolo[1,5-a]pyridin-6-yl)oxy)methyl)-3-fluoroprop-2-en-1-amine 4-methylbenzenesulfonate], for which the IC50 in test [1] was below 100 nM; in test [2] (class symbols), 10 to 30 µM; in test [3], 100 to 1000 nM.
For the compound `CCCCc1cn2cc(OC/C(=C\F)CN)ccc2n1` [Example 5, (Z)-2-(((2-butylimidazo[1,2-a]pyridin-6-yl)oxy)methyl)-3-fluoroprop-2-en-1-amine 4-methylbenzenesulfonate], the IC50 is below 100 nM in test [1], 10 to 30 µM in test [2] (class symbols) and 1000 to 10000 nM in test [3].
Take `CCCCc1cc2ccc(OC/C(=C/F)CN)cn2n1` [Example 6]: the IC50 is below 100 nM in test [1], 10 to 30 µM in test [2] (class symbols) and 100 to 1000 nM in test [3].
Consider `CCCCc1cn2nc(OC/C(=C/F)CN)ccc2n1` [Example 7, (E)-2-(((2-butylimidazo[1,2-b]pyridazin-6-yl)oxy)methyl)-3-fluoroprop-2-en-1-amine 4-methylbenzenesulfonate], for which the IC50 in test [1] is below 100 nM; in test [2] (cells printed as bound in μM) it was above 50 µM; in test [3], 100 to 1000 nM.
In the case of `CCCCc1cc2cc(OC/C(=C/F)CN)ccn2n1` [Example 8, (E)-2-(((2-butylpyrazolo[1,5-a]pyridin-5-yl)oxy)methyl)-3-fluoroprop-2-en-1-amine bis(4-methylbenzenesulfonate)], the IC50 was below 100 nM in test [1], 1 to 10 µM in test [2] (class symbols) and 100 to 1000 nM in test [3].
Consider `NC/C(=C/F)COc1ccc2nc(C3CCCC3)cn2c1` [Example 9, (Z)-2-(((2-cyclopentylimidazo[1,2-a]pyridin-6-yl)oxy)methyl)-3-fluoroprop-2-en-1-amine 4-methylbenzenesulfonate], for which the 50% inhibitory concentration (IC50) in test [1] was below 100 nM; in test [2] (class symbols) it was 1 to 10 µM; in test [3], 1000 to 10000 nM.
For `CCCCc1cn2cc(OC/C(=C/F)CNC(=O)OC(C)(C)C)cnc2n1` [Example 10, tert-butyl (E)-(2-(((2-butylimidazo[1,2-a]pyrimidin-6-yl)oxy)methyl)-3-fluoroallyl)carbamate], the IC50 in test [1] was below 100 nM; in test [2] (cells printed as bound in μM), above 50 µM; in test [3], 1000 to 10000 nM.

Source of the values: patent US12037334B2, “Inhibitors of VAP-1” (ACUCELA INC., priority 2018, dated 2024).
